Reference: PubChem BioAssay AID2060600 (Molecular Pharmacology Branch, DTP, NCI, 2025)
Where “and” joins values, the source holds several entries; their conditions need not be identical. Equal values may be shown once.

Tested on: 996289-038-R-J1-PDC complex spheroid viability
Experiment: Anticancer human tumor 996289-038-R-J1-PDC patient-derived colon adenocarcinoma cell line growth inhibition [CLK]
Conditions: for viability, T/C: stronger effect = lower value
Outline: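 Patient-derived tumor cells grown as complex spheroids with HUVEC endothelial cells and mesenchymal stem cells, treated with drug combinations. Concentrations descend in half-log steps from near clinical Cmax, or from 10 microM if Cmax unknown.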

[1] = curve of first compound, second compound 0.0316 µM
[2] = curve of first compound, second compound 0.1 µM
[3] = curve of first compound, second compound 0.316 µM
[4] = curve of first compound, second compound 1 µM
[5] = curve of first compound, second compound 3.16 µM
[6] = curve of first compound, second compound 10 µM
[7] = second compound 0.0316 µM, first compound 0.0316 µM
[8] = second compound 0.0316 µM, first compound 0.1 µM
[9] = second compound 0.0316 µM, first compound 0.316 µM
[10] = second compound 0.0316 µM, first compound 1 µM
[11] = second compound 0.0316 µM, first compound 3.16 µM
[12] = second compound 0.0316 µM, first compound 10 µM
[13] = second compound 0.1 µM, first compound 0.0316 µM
[14] = second compound 0.1 µM, first compound 0.1 µM
[15] = second compound 0.1 µM, first compound 0.316 µM
[16] = second compound 0.1 µM, first compound 1 µM
[17] = second compound 0.1 µM, first compound 3.16 µM
[18] = second compound 0.1 µM, first compound 10 µM
[19] = second compound 0.316 µM, first compound 0.0316 µM
[20] = second compound 0.316 µM, first compound 0.1 µM
[21] = second compound 0.316 µM, first compound 0.316 µM
[22] = second compound 0.316 µM, first compound 1 µM
[23] = second compound 0.316 µM, first compound 3.16 µM
[24] = second compound 0.316 µM, first compound 10 µM
[25] = second compound 1 µM, first compound 0.0316 µM
[26] = second compound 1 µM, first compound 0.1 µM
[27] = second compound 1 µM, first compound 0.316 µM
[28] = second compound 1 µM, first compound 1 µM
[29] = second compound 1 µM, first compound 3.16 µM
[30] = second compound 1 µM, first compound 10 µM
[31] = second compound 3.16 µM, first compound 0.0316 µM
[32] = second compound 3.16 µM, first compound 0.1 µM
[33] = second compound 3.16 µM, first compound 0.316 µM
[34] = second compound 3.16 µM, first compound 1 µM
[35] = second compound 3.16 µM, first compound 3.16 µM
[36] = second compound 3.16 µM, first compound 10 µM
[37] = second compound 10 µM, first compound 0.0316 µM
[38] = second compound 10 µM, first compound 0.1 µM
[39] = second compound 10 µM, first compound 0.316 µM
[40] = second compound 10 µM, first compound 1 µM
[41] = second compound 10 µM, first compound 3.16 µM
[42] = second compound 10 µM, first compound 10 µM
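Also: spheroids exposed to the agents for 7 days before readout.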

For `O=C(c1cc(Cc2n[nH]c(=O)c3ccccc23)ccc1F)N1CCN(C(=O)C2CC2)CC1`, the viability, T/C (compound 0.0316 µM) was 99.9% and 109%, the viability, T/C (compound 0.1 µM) was 98.6% and 86.6% and the viability, T/C (compound 0.316 µM) was 103% and 108%. The viability, T/C (compound 1 µM) was 99.1% and 105%, the viability, T/C (compound 3.16 µM) was 105% and 113% and the viability, T/C (compound 10 µM) was 93.9% and 104%. For the same compound, the IC50 (curve of compound) was over 10000 nM.

Work on `Nc1ccn(C2OC(CO)C(O)C2(F)F)c(=O)n1` (stereo not drawn) + CNC(=O)c1ccc(Nc2nc(OC3CCCC3)c3c(-c4ccc5nc(C)oc5c4)c[nH]c3n2)c(OC)c1 yielded an IC50 [1] of over 10000 nM, an IC50 [2] of over 10000 nM and an IC50 [3] of over 10000 nM. For the same compound, the IC50 [4] was 1230 nM, the IC50 [5] was 674 nM and the IC50 [6] was 639 nM. The viability, T/C [7] was 93.1%, the viability, T/C [8] was 82.7% and the viability, T/C [9] was 67.1%. For the same compound, the viability, T/C [10] was 70%, the viability, T/C [11] was 65.1% and the viability, T/C [12] was 56.4%. For the same compound, the viability, T/C [13] was 108%, the viability, T/C [14] was 85.3% and the viability, T/C [15] was 67.9%. The viability, T/C [16] was 68%, the viability, T/C [17] was 66.7% and the viability, T/C [18] was 54.9%. It also gave a viability, T/C [19] of 79.8%, a viability, T/C [20] of 70.5% and a viability, T/C [21] of 65.4%. It also gave a viability, T/C [22] of 56.1%, a viability, T/C [23] of 55.3% and a viability, T/C [24] of 52.2%. For the same compound, the viability, T/C [25] was 68.8%, the viability, T/C [26] was 63.4% and the viability, T/C [27] was 54.6%. It also gave a viability, T/C [28] of 50%, a viability, T/C [29] of 48.9% and a viability, T/C [30] of 41.4%. For the same compound, the viability, T/C [31] was 65.3%, the viability, T/C [32] was 54.2% and the viability, T/C [33] was 52.6%. The viability, T/C [34] was 49.3%, the viability, T/C [35] was 47.2% and the viability, T/C [36] was 36.9%. For the same compound, the viability, T/C [37] was 61.5%, the viability, T/C [38] was 57.6% and the viability, T/C [39] was 48.4%. For the same compound, the viability, T/C [40] was 49.4%, the viability, T/C [41] was 46.9% and the viability, T/C [42] was 35.2%.

`C=CC(=O)N1CCN(c2nc(=O)n(-c3c(C)ccnc3C(C)C)c3nc(-c4c(O)cccc4F)c(F)cc23)C(C)C1` (stereo not drawn) + CN1CCN(c2cc(C(=O)Nc3cc4cc(-c5cnn(C)c5)ccc4cn3)ccn2)CC1 gave an IC50 [1] of over 10000 nM, an IC50 [2] of over 10000 nM and an IC50 [3] of over 10000 nM. It also gave an IC50 [4] of under 31.6 nM, an IC50 [5] of under 31.6 nM and an IC50 [6] of under 31.6 nM. The viability, T/C [7] was 112%, the viability, T/C [8] was 111% and the viability, T/C [9] was 111%. It also gave a viability, T/C [10] of 104%, a viability, T/C [11] of 114% and a viability, T/C [12] of 109%. For the same compound, the viability, T/C [13] was 97.5%, the viability, T/C [14] was 102% and the viability, T/C [15] was 91.6%. It also gave a viability, T/C [16] of 103%, a viability, T/C [17] of 102% and a viability, T/C [18] of 99.3%. It also gave a viability, T/C [19] of 80.5%, a viability, T/C [20] of 73.1% and a viability, T/C [21] of 74.2%. It also gave a viability, T/C [22] of 82.5%, a viability, T/C [23] of 85.3% and a viability, T/C [24] of 77.7%. The viability, T/C [25] was 8.05%, the viability, T/C [26] was 7.07% and the viability, T/C [27] was 9.28%. It also gave a viability, T/C [28] of 8.41%, a viability, T/C [29] of 10.3% and a viability, T/C [30] of 6.56%. It also gave a viability, T/C [31] of 1.21%, a viability, T/C [32] of 1.63% and a viability, T/C [33] of 1%. For the same compound, the viability, T/C [34] was 1.24%, the viability, T/C [35] was 1.69% and the viability, T/C [36] was 1.89%. The viability, T/C [37] was 0.33%, the viability, T/C [38] was 1.03% and the viability, T/C [39] was 0.3%. The viability, T/C [40] was 0.75%, the viability, T/C [41] was 0.42% and the viability, T/C [42] was 1.33%.

`CCc1c2c(nc3ccc(O)cc13)-c1cc3c(c(=O)n1C2)COC(=O)[C@]3(O)CC` was tested, and the viability, T/C (compound 0.00316 µM) was 98.9% and 99.3%, the viability, T/C (compound 0.01 µM) was 81.9% and 72.3% and the viability, T/C (compound 0.0316 µM) was 60.8% and 61.9%. The viability, T/C (compound 0.1 µM) was 55.7% and 58.6%, the viability, T/C (compound 0.316 µM) was 45.8% and 50.8% and the viability, T/C (compound 1 µM) was 25.7% and 30.8%. The IC50 (curve of compound) was 135 nM and 165 nM.
